Test results reported in US20120039805A1, “Therapeutics And Methods For Treating Neoplastic Diseases Comprising Determining The Level Of Caveolin-1 And/Or Caveolin-2 In A Stromal Cell Sample” (PANGEA BIOSCIENCES, INC., priority 2009, published 2012).

How the values were obtained:
[1] = tested on: PD-ECGF/TP transfected cells; details: Haraguchi (1993); cited from earlier work
[2] = tested on: invasive carcinomas of the breast; assay: Breast cancer tissue microarray cohort: progression-free survival by treatment and stromal Cav-1; type: in vivo, human
Procedure: Breast tissues for tissue microarray construction were obtained from the Surgical Pathology tiles at the University of Michigan with institutional Review Board (IRB) approval. The TMA contained tissues derived from 154 largely consecutive patients with invasive carcinomas of the breast, with follow-up information treated at the University of Michigan from 1987-1991. Clinical and pathological variables were determined following well-established criteria. All invasive carcinomas were graded according to the method described by Elston and Ellis 17; Lymphovascular Invasion (LVI) was classified as either present or absent. The tissue microarrays were constructed, as previously described, using a tissue arrayer (Beecher Instruments, Silver Spring, Md.). Three tissue cores (0.6 mm diameter) were sampled from each block to account for tumor and tissue heterogeneity and transferred to the recipient block. Only cases with two or three cores containing tumor stromal cells were considered for statistical analysis in order to address possible heterogeneity of the staining in various tumor portions. Clinical and treatment information was extracted by chart review.
Our study population consists of 154 women diagnosed with breast cancer, with a median age of 59.5 years (range 28-96 years). 85% of the women were white. The median follow-up time for all survivors was 8.4 years (>30 days-18.5 years). […] The median time to recurrence or death from any cause was 7.1 years.
Statistical Analysis. For each patient, the date of breast cancer diagnosis, date of last follow-up, vital status at last follow-up, causes of death (breast cancer or other), and breast cancer recurrence, were recorded. Stromal caveolin was scored for each tissue sample based on 3 cores taken from the sample and given a numeric score of 0, 1 or 2, depending on the degree of stromal Cav-1 staining. The median of the three numeric scores was taken to be the stromal Cav-1 score for the sample. In the event that only two of the cores were scorable, and the median score was fractional, it was rounded upward to reflect the presence of stromal Cav-1. […]
Our primary outcome of interest in this study is progression-free survival (PFS) from time of diagnosis to the presence of metastasis, death, or last visit. PFS is evaluated using Kaplan-Meier estimation, and comparison of stratified survival curves was done using log-rank tests. […] Associations between the presence of stromal Cav-1 and other factors, including age, race, tumor grade, tumor size, lymph node status, histological subtype, estrogen receptor (ER), progesterone receptor (PR) and HER2, and presence of recurrent disease, were evaluated using Fisher's exact and Kruskal-Wallis tests, depending on the discrete or continuous nature of the other factors.

Cav-1 = assay: Co-culture of MCF-7 cells with normal human fibroblasts: Cav-1 down-regulation in fibroblasts; type: cell-based; details: within 5 days of co-culture
From the text: Using this system, it was observed that within 5 days of co-culture MCF-7 cells down-regulate the expression of Cav-1 in adjacent stromal fibroblasts. This occurs via the degradation of Cav-1 in lysosomal structures, and can be inhibited by chloroquine, an anti-lysomal agent. Most importantly, MCF-7 cells induce oxidative stress in the adjacent fibroblasts via the over-production of reactive oxygen species (ROS). ROS, in turn, is known to stabilize and activate certain transcription factors, such as NFkB and HIF. NFkB- and HIF- are the master regulators of “inflammation” and “hypoxia/aerobic glycolysis” in the tumor microenvironment. Thus, in order to detect the activation of NFkB and HIF only in the fibroblast cell population, two different fibroblast cell lines engineered to express either a NFkB-luciferase or HIF-luciferase transcriptional reporter were used. […] As such, NFkB is activated first, while HIF is activated on day 4 and day 5 of coculture, coicindent with Cav-1 down-regulation. Thus, cancer cells induce the Warburg effect in adjacent stromal fibroblasts via the activation of NFkB and HIF-target genes, leading to inflammation and aerobic glycolysis. These findings provide a mechanistic basis for the “Reverse Warburg Effect”, and a new high-throughput drug-screening assay for the identification of novel compounds that block the “Reverse Warburg Effect”.

[3] = tested on: MDA-MB-231 breast cancer cells co-injected with Cav-1-deficient stromal fibroblasts; assay: Two-component xenograft: nude mice co-injected with MDA-MB-231 cells and Cav-1-deficient stromal fibroblasts, treated with glycolysis inhibitors; type: in vivo; details: given individually, 200 mg/kg; mice co-injected with Cav-1-deficient stromal fibroblasts and MDA-MB-231 cells
Procedure: Mice co-injected with Cav-1-deficient stromal fibroblasts and MDA-MB-231 breast cancer cells were treated with glycolysis inhibitors. The efficacy of two well-established glycolysis inhibitors, namely 2-DG (2-deoxy-D-glucose) and DCA (dichloro-acetate), individually or in combination were tested.
To provide additional experimental validation for the idea that an absence of stromal Cav-1 promotes breast cancer tumor growth and angiogenesis, a 2-component cell-system using xenografts in immuno-deficient female nude mice was developed. Briefly, the flanks of nude mice were injected with a mixture of 1) MDA-MB-231 cells (a highly aggressive human breast cancer cell line; 1.0×10^−6 cells) and 2) stromal fibroblasts, derived from either WT or Cav-1 (−/−) null mice (0.3×10^−6 cells). After 3 weeks, nude mice were sacrificed and breast cancer-derived tumors were subjected to analysis for growth (tumor weight and volume measurements) and immuno-histochemistry with markers of angiogenesis, such as CD31 (a.k.a, PECAM1).
In this two-component system, nude mice are co-injected with i) human breast cancer cells (MDA-MB-231), and ii) stromal fibroblasts (WT versus Cav-1 (−/−) deficient).

neovascularization = details: Oikawa (1988); cited from earlier work
[4] = Tamoxifen-treated patients, stromal Cav-1 absent

## C[C@H]1O[C@@H](n2cc(F)c(=O)[nH]c2=O)[C@H](O)[C@@H]1O [5′DFUR, 5′-deoxy-5-fluorouridine]
[1]
  antitumor effect in PD-ECGF/TP transfected cells compared with untransfected wild-type cells: dramatic enhancement of antitumor effect

## CC/C(=C(\c1ccccc1)c1ccc(OCCN(C)C)cc1)c1ccccc1 [Tamoxifen]
[2]; Tamoxifen use Yes vs No (ref), adjusted for T stage, N stage, stromal Cav-1, 101 observations
  Hazard ratio, Cox regression of Progression-Free Survival (PFS): 0.621
[2]; [4]
  Median Progression-Free Survival (PFS): 3.55 years
  Percent of Patients Alive with No Recurrence, 5-Year PFS: 28.6%
[2]; Tamoxifen-treated patients, stromal Cav-1 present
  Percent of Patients Alive with No Recurrence, 5-Year PFS: 90.2%

## CCN(CC)CCCC(C)Nc1ccnc2cc(Cl)ccc12 (centres unmarked) [chloroquine]
Cav-1
  degradation of Cav-1 in lysosomal structures of fibroblasts co-cultured with MCF-7 cells: inhibited

## O=CC[C@@H](O)[C@H](O)[C@H](O)CO [2-DG, 2-deoxy-D-glucose]
[3]
  effect on tumor growth: no effect on tumor growth

## CC(=O)O[C@]1(C(C)=O)CC[C@H]2[C@@H]3C[C@H](C)C4=CC(=O)CC[C@]4(C)[C@H]3CC[C@@]21C [MPA, medroxyprogesterone acetate]
neovascularization
  neovascularization in the rabbit corneal assay: potently inhibited neovascularization
